System: patients with advanced solid tumors
Experiment: Phase 1 trial: adverse events (CTCAE), DLT and MTD
Type: in vivo, human
Procedure: The phase 1 trial was a two-part, multicenter, open-label, nonrandomized study to evaluate the safety and preliminary efficacy of HA121-28.
Safety, tolerability, and PK of HA121-28 was assessed in dose-escalation part. The single-patient accelerated titration was carried out at 25 mg and 50 mg; then, the dose escalation proceeded according to a “3 + 3” design in dose range of 100 to 800 mg. Escalation to a higher dose level was considered by the satisfactory review of safety results from the previous lower dose during the first cycle.
The dose-expansion part aims to further access the safety and efficacy of HA121-28 at the selected doses based on data from the dose-escalation part. The RP2D was determined by investigators in view of a thorough review of safety, PK, and efficacy results.
In phase 1 trial, during the dose-escalation part, patients first administered HA121-28 in a single ascending dose under the fasted state, then followed up for seven days. Then, patients received ascending doses of HA121-28 (q.d.) on a 21-day on and 7-day off treatment scheme for a 28-day cycle. For patients deemed beneficial from the treatment by investigators, treatment could remain until disease progression, or they discontinued from the study. In the dose-expansion part of phase 1, as well as phase 2, patients received HA121-28 (q.d.) at the selected doses on a 21-day on and 7-day off treatment scheme until disease progression, or they discontinued from the study.
Treatment-emergent adverse events (TEAEs) were documented during the entire study period. The predefined adverse event of special interest (AESI) was ≥ grade 3 prolonged QT interval. Tumor imaging was performed using contrast-enhanced computed tomography or magnetic resonance imaging at screening, Day 28 of the first cycle, then approximately every eight weeks till the end of the study for phase 1; in phase 2, imaging was scheduled at screening, and every eight weeks during the first 40 weeks, followed by every 12 weeks for the rest of the study period. RECIST 1.1 was used by the independent review committee or investigators for assessment of tumor response. After the original assessment, a repeated assessment was required around four weeks later to confirm a complete or partial response.
The primary endpoints of phase 1 were to investigate the MTD, dose-limiting toxicities, and the incidence and severity of TEAEs. Each TEAE was graded according to the Common Terminology Criteria for Adverse Events (CTCAE, version 5.0) and coded by Medical Dictionary for Regulatory Activities (MedDRA, version 21.0). The secondary endpoints included calculating PK parameters, assessing the ORR and DCR at the recommended dose by investigators as per RECIST 1.1. The exploratory endpoint was PFS.
If grade 2 or higher toxicity related to the study drug occurs in Groups 1 and 2 (as determined by the investigator), dose escalation will proceed using a 3+3 design starting from that dose level. If no DLT is observed at the 800 mg/d dose level after dose escalation, a meeting of investigators will be convened to decide whether to proceed with further dose escalation based on the available PK data, safety, and tolerability information.
5. Definition of DLT and MTD
The following events related to the study drug (including those that are definitely related, highly likely to be related, and possibly related):
(1) Grade 4 hematologic toxicity or grade 3 neutropenia accompanied by a fever of 38.5℃ or higher, or grade 3 thrombocytopenia accompanied by severe bleeding.
(2) Patients who discontinued the medication for more than 7 days due to unresolved toxicity reactions or who discontinued the medication more than twice due to toxicity […]
(3) In the context of supportive treatment, diarrhea of grade 2 lasting more than 7 days, or grade 3 diarrhea lasting more than 3 days.

SMILES: COc1cc2c(Nc3ccc(Br)cc3F)ncnc2cc1OCCCCN(C)C.Cl.Cl [HA121-28, N-(4-bromo-2-fluorophenyl)-7-(4-(dimethylamino)butoxy)-6-methoxy quinazolin-4-amine dihydrochloride]
- Serious TRAE: Drug eruption (Phase 1, 600 mg (N=64)): 1 (1.6) No. (%)
- Serious TRAE: Dyspnea (Phase 1, 600 mg (N=64)): 0 No. (%)
- Serious TRAE: Embolism (Phase 1, 600 mg (N=64)): 0 No. (%)
- Serious TRAE: Erythema multiforme (Phase 1, 600 mg (N=64)): 0 No. (%)
- Serious TRAE: Headache (Phase 1, 600 mg (N=64)): 0 No. (%)
- Serious TRAE: Hemoptysis (Phase 1, 600 mg (N=64)): 1 (1.6) No. (%)
- Serious TRAE: Hydronephrosis (Phase 1, 600 mg (N=64)): 0 No. (%)
- Serious TRAE: Hypertension (Phase 1, 600 mg (N=64)): 0 No. (%)
- Serious TRAE: Hypoalbuminemia (Phase 1, 600 mg (N=64)): 1 (1.6) No. (%)
- Serious TRAE: Intestinal obstruction (Phase 1, 600 mg (N=64)): 0 No. (%)
- Serious TRAE: Intra-abdominal fluid collection (Phase 1, 600 mg (N=64)): 0 No. (%)
- Serious TRAE: Intracranial tumor hemorrhage (Phase 1, 600 mg (N=64)): 0 No. (%)
- Serious TRAE: Liver injury (Phase 1, 600 mg (N=64)): 0 No. (%)
- Serious TRAE: Lung adenocarcinoma (Phase 1, 600 mg (N=64)): 0 No. (%)
- Serious TRAE: Malignant neoplasm progression (Phase 1, 600 mg (N=64)): 1 (1.6) No. (%)
- Serious TRAE: Multiple organ dysfunction syndrome (Phase 1, 600 mg (N=64)): 0 No. (%)
- Serious TRAE: Nausea (Phase 1, 600 mg (N=64)): 2 (3.1) No. (%)
- Serious TRAE: Nephrolithiasis (Phase 1, 600 mg (N=64)): 0 No. (%)
- Serious TRAE: Platelet counts decreased (Phase 1, 600 mg (N=64)): 0 No. (%)
- Serious TRAE: Pleural effusion (Phase 1, 600 mg (N=64)): 0 No. (%)
- Serious TRAE: Pneumonia (Phase 1, 600 mg (N=64)): 0 No. (%)
- Serious TRAE: Pneumonitis (Phase 1, 600 mg (N=64)): 0 No. (%)
- Serious TRAE: Prolonged QT interval (Phase 1, 600 mg (N=64)): 1 (1.6) No. (%)
- Serious TRAE: Pulmonary embolism (Phase 1, 600 mg (N=64)): 0 No. (%)
- Serious TRAE: Pyrexia (Phase 1, 600 mg (N=64)): 0 No. (%)
- Serious TRAE: Rash (Phase 1, 600 mg (N=64)): 3 (4.7) No. (%)
- Serious TRAE: Rectal hemorrhage (Phase 1, 600 mg (N=64)): 0 No. (%)
- Serious TRAE: Respiratory failure (Phase 1, 600 mg (N=64)): 0 No. (%)
- Serious TRAE: Seizure (Phase 1, 600 mg (N=64)): 0 No. (%)
- Serious TRAE: Septic shock (Phase 1, 600 mg (N=64)): 0 No. (%)
- Serious TRAE: Sudden cardiac arrest (Phase 1, 600 mg (N=64)): 1 (1.6) No. (%)
- Serious TRAE: Sudden death (Phase 1, 600 mg (N=64)): 1 (1.6) No. (%)
- Serious TRAE: Upper respiratory tract infection (Phase 1, 600 mg (N=64)): 0 No. (%)
- Serious TRAE: Ventricular tachycardia (Phase 1, 600 mg (N=64)): 1 (1.6) No. (%)
- Serious TRAE: Vomiting (Phase 1, 600 mg (N=64)): 2 (3.1) No. (%)
- Serious TRAE: Weight loss (Phase 1, 600 mg (N=64)): 2 (3.1) No. (%)
- Serious TEAE: ALT increased (Phase 1, 800 mg (N=3)): 0 No. (%)
- Serious TEAE: AST increased (Phase 1, 800 mg (N=3)): 0 No. (%)
- Serious TEAE: Abdominal Pain (Phase 1, 800 mg (N=3)): 0 No. (%)
- Serious TEAE: Abdominal distension (Phase 1, 800 mg (N=3)): 0 No. (%)
- Serious TEAE: Acute cholecystitis (Phase 1, 800 mg (N=3)): 0 No. (%)
- Serious TEAE: Acute pancreatitis (Phase 1, 800 mg (N=3)): 0 No. (%)
- Serious TEAE: Anal abscess (Phase 1, 800 mg (N=3)): 0 No. (%)
- Serious TEAE: Any (Phase 1, 800 mg (N=3)): 1 (33.3) No. (%)
- Serious TEAE: Aortic intramural hematoma (Phase 1, 800 mg (N=3)): 0 No. (%)
- Serious TEAE: Arrhythmia (Phase 1, 800 mg (N=3)): 0 No. (%)
- Serious TEAE: Blood bilirubin increased (Phase 1, 800 mg (N=3)): 0 No. (%)
- Serious TEAE: Blood creatinine increased (Phase 1, 800 mg (N=3)): 0 No. (%)
- Serious TEAE: COVID-19 (Phase 1, 800 mg (N=3)): 0 No. (%)
- Serious TEAE: Cardiac tamponade (Phase 1, 800 mg (N=3)): 0 No. (%)
- Serious TEAE: Coronary artery atherosclerosis (Phase 1, 800 mg (N=3)): 0 No. (%)
- Serious TEAE: Death (Phase 1, 800 mg (N=3)): 0 No. (%)
- Serious TEAE: Diarrhea (Phase 1, 800 mg (N=3)): 0 No. (%)
- Serious TEAE: Drug eruption (Phase 1, 800 mg (N=3)): 0 No. (%)
- Serious TEAE: Dyspnea (Phase 1, 800 mg (N=3)): 0 No. (%)
- Serious TEAE: Embolism (Phase 1, 800 mg (N=3)): 0 No. (%)
- Serious TEAE: Erythema multiforme (Phase 1, 800 mg (N=3)): 0 No. (%)

Reference: article PMC11868595, “Safety, pharmacokinetics and efficacy of HA121-28 in patients with advanced solid tumors and RET fusion-positive non-small-cell lung cancer: a multicenter, open-label, single-arm phase 1/2 trial” (Signal Transduction and Targeted Therapy, 2025)
